Patent publication US5258406A, “Sulfonimidamides” (priority 1992, dated 1993)
Like-named read-outs stand apart in the source and are kept apart here.

Tests used:
Type in all cases: in vivo
6C3HED lymphosarcoma = assay: animal or person
HC1 = tested on: HC1
Experimental: (§1) The compounds were tested in C3H mice bearing a 6C3HED lymphosarcoma, also known as the Gardner lymphosarcoma (GLS), and in a variety of human tumor xenografts in CD1 nu/nu mice, including CX-1, LX-1, HXGC3, and VRC5. The 6C3HED lymphosarcoma was obtained from the Division of Cancer Treatment, National […] Institute, Tumor Bank, maintained at E. G. and G. Mason Research (Worcester, Mass.). The CX-1 human colon carcinoma and the LX-1 human lung carcinoma xenografts were obtained from the National Cancer Institute. The HXGC3 and VRC5 human colon xenografts were obtained from Dr. P. J. Houghton, St. Jude Children's Hospital in Memphis (see Br. J. Cancer, 37, 213 (1978)). First passage tumor was stored in liquid nitrogen using standard techniques. The transplanted tumor was reestablished from the Tumor Bank every six months or as needed. The tumor was maintained by serial passage twice weekly in C3H mice.
(§2) In the procedure the tumor was removed from passage animals and minced into 1- to 3-mm square fragments using sterile techniques. Tumor pieces were checked for sterility using both Antibiotic Medium 1 and Brain Heart Infusion (Difco, Detroit, Mich.). Recipient mice were shaved and tumor pieces were implanted subcutaneously in the auxiliary region by trocar. Drug therapy on the appropriate schedule was initiated on the day after tumor implant for 6C3HED and after a seven (7) day delay for xenografts (or other delay as noted in Table 2). The compound being tested was mixed with 2.5% Emulphor EL620 from GAF Corporation (1:40 dilution in saline). Food and water were provided ad libitium. The drug was administered orally in 0.5 ml of 2.5% Emulphor (unless otherwise indicated). The tumor was measured the day after treatment ended with two dimensional measurements (width and length) of the tumor taken using automated digital calipers interfaced to a microcomputer. Approximate weight for the tumor was calculated using the following formula [Worzalla, J. F., et al., Invest. New Drugs, 8, 241 (1990], (tumor weight in mg)=(width in mm)^2 ×(length in mm)/2.
(§3) At least one control group of an equal number of mice was treated with the same volume of 2.5% Emulphor only. The percent inhibition was determined by subtracting the ratio of the mean tumor size of the test group relative to the control group from one and multiplying the result times 100.
(§4) The results of several experiments in mice bearing a 6C3HED lymphosarcoma (or other tumor where indicated) when the indicated compounds were administered are provided in Table 2. In Table 2, column 1 gives the Example number of the compound used, column 2 lists the dose level in mg/kg, column 3 provides the percent inhibition of tumor growth, column 4 gives the number of mice which died relative to the total number of animals in the group, column 5 gives the method of administration of the compound, and column 6 gives the dosage schedule. The protocol used with other tumors was the same as with the 6C3HED lymphosarcoma.

LX1 = tested on: LX1
Experimental: as §1, §2, §3, §4

[1] = oral, 500 mg/kg, BIDX 14, from day 14 after implant
[2] = oral, 3 mg/kg, BIDX 14, from day 7 after implant

Cc1ccc(S(=N)(=O)NC(=O)Nc2ccc(Cl)cc2)cc1 (centres unmarked) [Example 2, N-[[(4-chlorophenyl)amino]carbonyl]-4-methylbenzenesulfonimidamide]
Tox/Tot (mice which died / total) (6C3HED lymphosarcoma; IP, 150 mg/kg, DX 8): 1/10
Tox/Tot (mice which died / total) (6C3HED lymphosarcoma; IP, 300 mg/kg, DX 8): 6/10
Tox/Tot (mice which died / total) (6C3HED lymphosarcoma; IV, 12.5 mg/kg, DX 8): 0/10
Tox/Tot (mice which died / total) (6C3HED lymphosarcoma; IV, 25 mg/kg, DX 8): 1/10
inhibition in vivo at 150 mg/kg (6C3HED lymphosarcoma; Mus musculus, 6C3HED, ip, read-out: % inhibition of tumor growth, IP, 150 mg/kg, DX 8): 92%
inhibition in vivo at 300 mg/kg (6C3HED lymphosarcoma; Mus musculus, 6C3HED, ip, read-out: % inhibition of tumor growth, IP, 300 mg/kg, DX 8): 98%
inhibition in vivo at 12.5 mg/kg (6C3HED lymphosarcoma; Mus musculus, 6C3HED, iv, read-out: % inhibition of tumor growth, IV, 12.5 mg/kg, DX 8): 36%
inhibition in vivo at 25 mg/kg (6C3HED lymphosarcoma; Mus musculus, 6C3HED, iv, read-out: % inhibition of tumor growth, IV, 25 mg/kg, DX 8): 52%
inhibition in vivo at 50 mg/kg (6C3HED lymphosarcoma; Mus musculus, 6C3HED, po, read-out: % inhibition of tumor growth, oral, 50 mg/kg, BIDX 8): 95%
inhibition in vivo at 75 mg/kg (6C3HED lymphosarcoma; Mus musculus, 6C3HED, po, read-out: % inhibition of tumor growth, oral, 75 mg/kg, DX 8): 76%
inhibition in vivo at 100 mg/kg (6C3HED lymphosarcoma; Mus musculus, 6C3HED, po, read-out: % inhibition of tumor growth, oral, 100 mg/kg, BIDX 8): 96%
inhibition in vivo at 150 mg/kg (6C3HED lymphosarcoma; Mus musculus, 6C3HED, po, read-out: % inhibition of tumor growth, oral, 150 mg/kg, DX 8): 74%
inhibition in vivo at 200 mg/kg (6C3HED lymphosarcoma; Mus musculus, 6C3HED, po, read-out: % inhibition of tumor growth, oral, 200 mg/kg, BIDX 8): 98%
inhibition in vivo at 300 mg/kg (6C3HED lymphosarcoma; Mus musculus, 6C3HED, po, read-out: % inhibition of tumor growth, oral, 300 mg/kg, DX 8): 82%
inhibition in vivo at 400 mg/kg (6C3HED lymphosarcoma; Mus musculus, 6C3HED, po, read-out: % inhibition of tumor growth, oral, 400 mg/kg, BIDX 8): 99%
inhibition in vivo at 600 mg/kg (6C3HED lymphosarcoma; Mus musculus, 6C3HED, po, read-out: % inhibition of tumor growth, oral, 600 mg/kg, DX 8): 99%
inhibition in vivo at 800 mg/kg (6C3HED lymphosarcoma; Mus musculus, 6C3HED, po, read-out: % inhibition of tumor growth, oral, 800 mg/kg, BIDX 8): 99%
inhibition in vivo at 1200 mg/kg (6C3HED lymphosarcoma; Mus musculus, 6C3HED, po, read-out: % inhibition of tumor growth, oral, 1200 mg/kg, DX 8): 100%
Tox/Tot (mice which died / total) (6C3HED lymphosarcoma; oral, 50 mg/kg, BIDX 8): 0/10
Tox/Tot (mice which died / total) (6C3HED lymphosarcoma; oral, 75 mg/kg, DX 8): 0/10
Tox/Tot (mice which died / total) (6C3HED lymphosarcoma; oral, 100 mg/kg, BIDX 8): 0/10
% inhibition of tumor growth (6C3HED lymphosarcoma; oral, 150 mg/kg, DX 8): 93%
Tox/Tot (mice which died / total) (6C3HED lymphosarcoma; oral, 150 mg/kg, DX 8): 0/10
Tox/Tot (mice which died / total) (6C3HED lymphosarcoma; oral, 200 mg/kg, BIDX 8): 0/10
% inhibition of tumor growth (6C3HED lymphosarcoma; oral, 300 mg/kg, DX 8): 95%
Tox/Tot (mice which died / total) (6C3HED lymphosarcoma; oral, 300 mg/kg, DX 8): 0/10
Tox/Tot (mice which died / total) (6C3HED lymphosarcoma; oral, 400 mg/kg, BIDX 8): 0/10
Tox/Tot (mice which died / total) (6C3HED lymphosarcoma; oral, 600 mg/kg, DX 8): 0/10
Tox/Tot (mice which died / total) (6C3HED lymphosarcoma; oral, 800 mg/kg, BIDX 8): 1/10
Tox/Tot (mice which died / total) (6C3HED lymphosarcoma; oral, 1200 mg/kg, DX 8): 0/10
Tox/Tot (mice which died / total) (HC1; oral, 250 mg/kg, BIDX 14, from day 14 after implant): 2/9
% inhibition of tumor growth (HC1; [1]): TOX
Tox/Tot (mice which died / total) (HC1; [1]): 9/9
% inhibition of tumor growth (HC1; po, 250 mg/kg, 336 h): 68%
% inhibition of tumor growth (LX1; [2]): 24%
Tox/Tot (mice which died / total) (LX1; [2]): 0/10
Tox/Tot (mice which died / total) (LX1; oral, 10 mg/kg, BIDX 14, from day 7 after implant): 0/10
Tox/Tot (mice which died / total) (LX1; oral, 30 mg/kg, BIDX 14, from day 7 after implant): 0/10
Tox/Tot (mice which died / total) (LX1; oral, 100 mg/kg, BIDX 14, from day 7 after implant): 0/10
Tox/Tot (mice which died / total) (LX1; oral, 300 mg/kg, BIDX 14, from day 7 after implant): 5/10
% inhibition of tumor growth (LX1; po, 10 mg/kg, 168 h): 18%
% inhibition of tumor growth (LX1; po, 30 mg/kg, 168 h): 28%
% inhibition of tumor growth (LX1; po, 100 mg/kg, 168 h): 51%
% inhibition of tumor growth (LX1; po, 300 mg/kg, 168 h): 66%
